From US11021481B2, “Substituted isoindolin-1-ones and 2,3-dihydro-1h-pyrrolo[3,4-c]pyridin-1-ones as HPK1 antagonists” (Nimbus Saturn, Inc., priority 2019, dated 2021)
pIC50: −log10 of the molar value.

Molecular target: HPK1 (Homo sapiens (Human), UniProt Q92918)
Test: HPK1 biochemical enzyme assay (microfluidic mobility shift assay)
Details: 1.5 nM HPK1, ATP 1 mM final, 30 min preincubation, 60 min at RT, Caliper EZ Reader; read-out: HPK1 1000UMATP caliper IC50
Procedure, shortened: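 Mobility shift readout of HPK1 activity after a 60 min RT reaction with 1 mM ATP, 1 μM substrate and 5 mM MgCl2. Enzyme/substrate mix was first exposed to compounds for 30 min, using ten-point curves topping at 3 μM final.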

Sequence of HPK1 (Q92918 whole entry): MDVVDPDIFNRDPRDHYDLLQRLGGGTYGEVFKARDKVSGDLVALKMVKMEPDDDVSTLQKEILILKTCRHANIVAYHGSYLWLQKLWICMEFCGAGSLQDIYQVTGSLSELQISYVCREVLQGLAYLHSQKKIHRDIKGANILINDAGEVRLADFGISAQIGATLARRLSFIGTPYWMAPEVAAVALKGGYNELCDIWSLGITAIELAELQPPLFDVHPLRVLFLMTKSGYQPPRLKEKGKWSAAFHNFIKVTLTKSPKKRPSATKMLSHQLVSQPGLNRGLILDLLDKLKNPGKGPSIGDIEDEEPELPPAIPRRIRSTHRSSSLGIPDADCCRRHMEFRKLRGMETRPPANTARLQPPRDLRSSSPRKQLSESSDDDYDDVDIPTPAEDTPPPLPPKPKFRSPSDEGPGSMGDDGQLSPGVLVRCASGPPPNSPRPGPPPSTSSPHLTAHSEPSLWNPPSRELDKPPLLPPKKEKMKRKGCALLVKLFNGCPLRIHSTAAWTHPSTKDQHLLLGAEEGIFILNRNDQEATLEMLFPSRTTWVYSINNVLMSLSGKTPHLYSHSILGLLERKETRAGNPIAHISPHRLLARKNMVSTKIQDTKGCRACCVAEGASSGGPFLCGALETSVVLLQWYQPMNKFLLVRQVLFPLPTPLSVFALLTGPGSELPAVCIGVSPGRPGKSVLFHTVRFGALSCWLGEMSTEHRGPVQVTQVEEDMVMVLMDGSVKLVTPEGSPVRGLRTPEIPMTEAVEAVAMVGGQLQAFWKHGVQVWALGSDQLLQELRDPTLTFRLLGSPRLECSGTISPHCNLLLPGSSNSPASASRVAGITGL

(S)-7-((6- ((dimethylamino)- methyl)-5- (tetrahydrofuran- 3-yl)pyridin- 2-yl)amino)-4- (8-methylimidazo [1,2-a]pyridin- 3-yl)isoindolin- 1-one [I-695]
pIC50: > 7.00
